In PubChem BioAssay (NCI) one finds TGI data, which are given here for 14 molecules.

Some test systems named below: OVCAR-8 ovarian; PC-3 prostate; CAKI-1 renal; UACC-257 melanoma; LOX IMVI melanoma; SF-268 CNS; OVCAR-5 ovarian; SNB-75 CNS; SNB-19 CNS; MALME-3M melanoma.
What all share (test): NCI tumour cell line growth inhibition, 48 h

Each structure is given as a SMILES string.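 Results reflect a 48-hour exposure of cells in 96-well plates to compound at five concentrations. TGI marks complete inhibition of growth.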 Bounds are passed on as bounds.

`CCn1c2nc(=O)n(CCCCCCCCSC(c3ccccc3)(c3ccccc3)c3ccccc3)c(=O)c-2nc2ccccc21`: the TGI with OVCAR-8 ovarian, in the experiment on PC-3 prostate, in the experiment with CAKI-1 renal, with UACC-257 melanoma, in the experiment on LOX IMVI melanoma and with SF-268 CNS was over 100 µM each time. In addition, the TGI with OVCAR-5 ovarian is over 100 µM.

With `Cn1c(-c2ccc(-c3cc(-c4cccs4)c(-c4cccs4)n3C)cc2)cc(-c2cccs2)c1-c1cccs1`, the TGI in the experiment with OVCAR-8 ovarian, with PC-3 prostate, in the experiment on CAKI-1 renal, with UACC-257 melanoma, in the experiment with SF-268 CNS and in the experiment with SNB-75 CNS was over 100 µM throughout. The same molecule came in with a TGI in the experiment with SNB-19 CNS of over 100 µM.

Turning to `O=C1C=C(Nc2ccccc2C(=O)CC(=O)C(=O)Nc2ccc(Cl)cc2)c2ccccc2C1=O`, the TGI in the experiment with OVCAR-8 ovarian was 37.4 µM; with CAKI-1 renal, over 83.4 µM; in the experiment on UACC-257 melanoma, 21.7 µM; with LOX IMVI melanoma, 4.98 µM; in the experiment with SF-268 CNS, 57.5 µM; in the experiment with OVCAR-5 ovarian it was 35.6 µM. The TGI in the experiment on MALME-3M melanoma stood at 24.1 µM; in the experiment with SNB-75 CNS it was 36 µM; with SNB-19 CNS, 43.9 µM.

For the molecule `COC(=O)[C@H](CC(C)C)NC(=O)[C@H](Cc1ccccc1)N1CC2C=CC1C2` (stereo not given in full), the TGI with OVCAR-8 ovarian, in the experiment with CAKI-1 renal, in the experiment with UACC-257 melanoma, in the experiment with LOX IMVI melanoma, in the experiment on SF-268 CNS and in the experiment with OVCAR-5 ovarian was over 100 µM throughout. In addition, the TGI in the experiment with MALME-3M melanoma, with SNB-75 CNS and with SNB-19 CNS was over 100 µM throughout.

Take `Nc1nc(NCCOCP(=O)(O)O)c([N+](=O)[O-])c(=O)[nH]1`: the TGI in the experiment on OVCAR-8 ovarian, with UACC-257 melanoma, in the experiment with LOX IMVI melanoma, in the experiment on SF-268 CNS, in the experiment on MALME-3M melanoma and with SNB-75 CNS was over 100 µM throughout. The TGI in the experiment on SNB-19 CNS was over 100 µM.

Regarding `CCC12CCCN(Cc3ccccc3)C1c1c(n(C)c3ccccc13)C(CO)C2` (stereo not given), the TGI with OVCAR-8 ovarian was 186 µM; with CAKI-1 renal, over 257 µM; in the experiment on UACC-257 melanoma it was 95.1 µM; with LOX IMVI melanoma, 82 µM; in the experiment on SF-268 CNS, over 257 µM; in the experiment on OVCAR-5 ovarian, 75.6 µM. In addition, the TGI with MALME-3M melanoma turned out to be 84.6 µM; in the experiment with SNB-19 CNS, 186 µM.

As to `CC(C)(C)N/N=C(\C(=O)Nc1cccc(Cl)c1)C1C(=O)Nc2ccccc2S1=O` (stereo not given), the TGI is over 100 µM with OVCAR-8 ovarian; over 100 µM in the experiment with CAKI-1 renal; over 100 µM with UACC-257 melanoma; over 100 µM in the experiment on LOX IMVI melanoma; over 100 µM in the experiment on SF-268 CNS; 47.4 µM with MALME-3M melanoma. For the same molecule, the TGI in the experiment with SNB-75 CNS and in the experiment with SNB-19 CNS was over 100 µM each time.

Turning to `Cc1c(Cc2ccccc2)n(C(C)OCCN(OC(=O)Oc2ccccc2)C(=O)Oc2ccccc2)c(=O)[nH]c1=O` (stereo not given), the TGI in the experiment on OVCAR-8 ovarian worked out at 34.7 µM; with PC-3 prostate, 58.9 µM; in the experiment with CAKI-1 renal it was 33.9 µM; with UACC-257 melanoma, 30.2 µM; in the experiment on SF-268 CNS, 40.3 µM; with OVCAR-5 ovarian, 31.6 µM. Further, the TGI was 20.6 µM with SNB-75 CNS and over 100 µM with SNB-19 CNS.

Consider `C/C=C1/CN2CCC34c5ccccc5N(C)C23C2CC1C4(C(=O)OC)C(OC(C)=O)O2` (stereo not given), for which the TGI in the experiment on OVCAR-8 ovarian, with PC-3 prostate, in the experiment with CAKI-1 renal, with UACC-257 melanoma, in the experiment with LOX IMVI melanoma and with SF-268 CNS was over 100 µM in each case. Also, the TGI in the experiment on OVCAR-5 ovarian, with SNB-75 CNS and in the experiment with SNB-19 CNS was over 100 µM in each case.

Turning to `O=c1[nH]c(=O)c2ncn(-c3ccc([N+](=O)[O-])cn3)c2[nH]1`, the TGI in the experiment on OVCAR-8 ovarian, in the experiment with PC-3 prostate, with CAKI-1 renal, in the experiment on UACC-257 melanoma, in the experiment with LOX IMVI melanoma and with SF-268 CNS was over 100 µM throughout. Further, the TGI in the experiment with OVCAR-5 ovarian, in the experiment with SNB-75 CNS and in the experiment with SNB-19 CNS was over 100 µM throughout.

As to `Cc1ccc(Cc2cc(N3CCN(c4cccc(Cl)c4)CC3)nnc2C)cc1`, the TGI with OVCAR-8 ovarian, in the experiment on PC-3 prostate, in the experiment with CAKI-1 renal, with UACC-257 melanoma, with SF-268 CNS and with OVCAR-5 ovarian was over 100 µM each time. In addition, the TGI in the experiment with SNB-75 CNS and in the experiment with SNB-19 CNS was over 100 µM throughout.

As to `COC(=O)CN(CC(=O)NCCCBr)C1CCCCC1N(CC(=O)OC)CC(=O)OC` (stereo not given), the TGI in the experiment with OVCAR-8 ovarian, with PC-3 prostate, in the experiment on CAKI-1 renal, with UACC-257 melanoma, in the experiment on LOX IMVI melanoma and in the experiment with SF-268 CNS was over 100 µM throughout. Also, the TGI in the experiment on OVCAR-5 ovarian is over 100 µM; in the experiment on SNB-75 CNS, 64.9 µM; in the experiment with SNB-19 CNS, over 100 µM.

As to `COc1ccc2c(c1)Oc1cc(O)ccc1[C@H]2c1ccccc1C(=O)NC(C)c1ccccc1` (stereo not given in full), the TGI with OVCAR-8 ovarian stood at 36 µM; with CAKI-1 renal, 33.7 µM; in the experiment on UACC-257 melanoma, 37.3 µM; in the experiment on LOX IMVI melanoma, 31.6 µM; in the experiment with SF-268 CNS, 45.8 µM; in the experiment on OVCAR-5 ovarian, 29.4 µM. In addition, the TGI in the experiment on MALME-3M melanoma was found to be 46.2 µM; with SNB-75 CNS it was 35 µM; in the experiment on SNB-19 CNS, 33 µM.

Consider `O=C(Cc1nc2ccc(C(=O)c3ccccc3)cc2[nH]c1=O)C(=O)Nc1nc2ccccc2[nH]1`, for which the TGI with OVCAR-8 ovarian, with CAKI-1 renal, in the experiment on UACC-257 melanoma, in the experiment with LOX IMVI melanoma, in the experiment with SF-268 CNS and in the experiment on MALME-3M melanoma was over 100 µM in each case. Moreover, the TGI in the experiment with SNB-75 CNS and with SNB-19 CNS was over 100 µM in each case.
